Data as given in US4752614A, “Pharmaceutical compositions of tellerium and selenium compounds for the induction of in vivo and in vitro production of cytokines” (Bar-Ilan University, priority 1987, dated 1988).
Where “and” joins values, the source holds several entries; their conditions need not be identical. Equal values may be shown once. Entries after “also recorded” stand apart in the source; their conditions may differ.

Columns and labels:
[1] = test system: experimentally induced tumor; assay: In vivo effect on methylcholanthrene (MCA) induced tumor (Example 5); set-up: species or system C3 Heb mice; details: 10 μg IP
Method: (§1) A solution of 0.2% of methylcholanthrene (MCA, Sigma, USA) was prepared by dissolving 2 mg of the carcinogen in 1.0 ml of olive oil (Ref: Petra, et al., Cancer 19:302, 1961) with continuous shaking at 37° C. for 30 minutes. Six to eight week old C3 Heb mice were injected with 0.6 mg MCA/0.3 ml of solvent/mouse subcutaneously in the rear right thigh. After 21-30 days the induced tumor was surgically removed and pushed through 60 mesh stainless nets to obtain isolated cells. These cells were then further injected subcuteneously into the rear right thigh of C3 Heb mice 5 to 8 weeks of age, at a concentration of 10^6 cells/0.3 ml PBS/mouse/hypodermic needle 25 gauge, 5/8" to further induce tumor formation.
Five days after injection of the tumor cells, a palpable tumor was induced. The animals were thereafter treated as follows:
(a) control (0.2 ml 40% DMSO 60% PBS, IP 1 day after the induced tumor was palpable)
(b) 10 μg of compound of Example 1, IP to 5 mice (in 0.2 ml 40% DMSO 60% PBS, 3 days after the induced tumor was palpable and a second injection of 10 μg of compound in the same solvent was administered 5 days after the first injection to 3 of the 5 mice.
All animals expired 35 to 38 days after the initial innoculation.

fibrosarcoma cells = assay: Survival of mice with methylcholanthrene induced fibrosarcoma (Example 6); assay type: in vivo, Balb-c mice; set-up: mortality: concentration or dose not given beside the values
Method: as §1
Balb-c mice, age 7 weeks were injected with methylcholanthrene to induce the formation of fibrosarcoma cells according to the procedure of Example 5. The test animals were divided into two groups.
(a) control (0.2 IP of 40% DMSO and 60% PBS)

IL-2 = assay: Oral administration in drinking water, IL-2 content of spleen cell supernatants (Example 13); assay type: in vivo, male Balb-C mice; details: 1 μg/ml H2O, 4 days
Method: The water solution was prepared by dissolving the compounds in PBS at a concentration of 50 μg/ml PBS and diluting the resulting solution to the desired concentration. The compounds were administered over a 4 day period. The exact amount of liquid intake was recorded daily. […] The cells were incubated at a concentration of 10^7 cells/ml in enriched RPMI containing 2 μg/ml of con-A for 24 hours at 37° C. The supernatants were collected and tested for IL-2 content.

CSF = assay: In vitro induction of colony stimulating factor (CSF) from mouse spleen cells (Example 7); assay type: cell-based, male Balb-c mice
Method: This example describes the in vitro making of IL-2 and CSF from mouse spleen cells using the compound of Example 1 as the extrinsic stimulating agent.
Spleens were removed from 15, male Balb-c mice 6 to 8 weeks of age. The spleen cells were pushed through stainless steel 60 mesh (U.S. standard) nets resting in 5 mm Petri dishes containing PBS in order to separate the cells. The cells were then collected into centrifuge tubes and spun at 1000 rpm for 10 minutes. The supernatant was discarded and cells were treated with 5 ml of hypotonic buffer (0.15M NH4 Cl; 0.01M KHCO3 dissolved in double distilled water, pH 7.2) for exactly two minutes. Thereafter, PBS was added to the cells and the test tubes were centrifuged for 10 minutes at 1000 rpm. The cells were rinsed twice and counted in a heamocytometer using trypan blue to test for viability. The cells were brought to a concentration of 10^7 viable cells/ml. The cells were contacted with varying amounts of the compound of Example 1 in 1 ml of 40% DMSO 60% PBS.

receptor sites for IL-2 = assay: Detection of IL-2 receptors with fluoresceinated antibody (Example 21); assay type: cell-based, human; details: 1 μg/ml, 24 hours
Method: This example provides an assay to detect the presence of receptor sites for IL-2. […] The cells were washed twice with PDS and then incubated with a specific fluoresceinated antibody against IL-2 receptors as described in Uchiyama et al, J. Immunol.

West Nile virus (WNV) = assay: West Nile virus infection in mice (Example 22); assay type: in vivo, ICR mice; details: for # Alive/Total Animals: Table A; for # Alive/Total Animals / # Alive/Total: preliminary; for # Alive/Total: Table B
Method: The compounds may be used as anti-bacterial or anti-viral agents in plants or in animals. Virus infections such as West Nile virus infections in mice are susceptible to the compound of the Example 1 at a dose of 10 μg/day/mouse. Plant bacterial infections such as crown gall caused by Agrobacterium tumefaciens may be treated or prevented by the application of a 0.1% solution of compounds of the invention.
The effect of the compound of Example 1 on an infection with West Nile virus (WNV) was determined. WNV is a toga virus of the flavivirus group, a positive single stranded RNA virus, which when injected IP to mice usually kills them within 5-8 days as a result of extensive damage to the central nervous system. For this study ICR mice (3 wks of age) were injected IP with the virus at the concentration of 10^3 or 10^4 LD 50 units/mouse. Injections of 10 μg/0.2 ml PBS/mouse of the compound of Ex. 1 were given on day -1 (one day prior to injection of virus) and 6 days after injection of virus.
In a second experiment, mice were injected with 10^3 IPLD50 virus and received injections of the compound of Example 1 (1 μg/0.2 ml PBS/mouse) on days -1, 1, 2 and 4.

WNV = WNV yield in mouse macrophage cultures (Example 23); assay type: cell-based, ICR mouse macrophage; details: 72 h; for Virus Yield: preliminary
Method: Varying amounts of the compound of Example 1 (5 μg, 1 μg, 0.1 μg) were incubated with a monolayer of mouse macrophages for 24 h. […] All cultures were then infected with 10^4 PFU/plate. After 72 h incubation the supernatants were collected and the virus was titrated against Vera cells.

Structure (SMILES): Cl[TeH]1(Cl)(Cl)OCCO1 [Example 1]
- Vol. of Tumor (13 days) ([1]; day 3, individual mouse): 0.77 and 1.66
- Vol. of Tumor (13 days) ([1]; day 3 and 5, individual mouse): 0.7 and 0.52 and 0.31
- % Survival (fibrosarcoma cells; 10 μg IP, day 4 after innoculation): 100%
- % Survival (fibrosarcoma cells; 10 μg IP, day 9): 100%
- % Survival (fibrosarcoma cells; 10 μg IP, day 23): 100%
- % Survival (fibrosarcoma cells; 10 μg IP, day 30): 100%
- % Survival (fibrosarcoma cells; 10 μg IP, day 37): 100%
- % Survival (fibrosarcoma cells; day 39, start of increased dosage regimen): 100%
- % Survival (fibrosarcoma cells; day 41, increased dosage): 100%
- % Survival (fibrosarcoma cells; day 43, increased dosage): 100%
- % Survival (fibrosarcoma cells; day 46, increased dosage): 80%
- % Survival (fibrosarcoma cells; day 48, increased dosage): 80%
- % Survival (fibrosarcoma cells; day 50, increased dosage): 80%
- % Survival (fibrosarcoma cells; day 53, increased dosage): 60%
- % Survival (fibrosarcoma cells; day 60, increased dosage): 40%
- % Survival (fibrosarcoma cells; day 67): 20%
- % Survival (fibrosarcoma cells; day 68): 0%
- mortality (fibrosarcoma cells; group (b), until just after the increased dosage regimen (day 39)): 0%
- IL-2 content (IL-2): 49179 cpm
- Percent increase as compared to control (IL-2): +50%
- CSF (CSF; 5 pg): 140 colonies/dish
- CSF (CSF; 50 pg): 260 colonies/dish
- CSF (CSF; 500 pg): 175 colonies/dish
- CSF (CSF; 5 ng): 120 colonies/dish
- CSF (CSF; 50 ng): 75 colonies/dish
- CSF (CSF; 500 ng): 25 colonies/dish
- CSF (CSF; 5 μg): 5 colonies/dish
- CSF (CSF; 50 μg): 2 colonies/dish
- cells positive for IL-2 receptors (receptor sites for IL-2): 20%
- susceptibility of West Nile virus infections in mice (West Nile virus (WNV); 10 μg/day/mouse): susceptible
- survival beyond day 8 (West Nile virus (WNV); 10^3 IPLD50, 1 μg/mouse days -1, 1, 2 and 4): Two out of the remaining three survived an additional 8 days; also recorded: the third remained alive without any manifestations of clinical symptoms
- # Alive/Total Animals (West Nile virus (WNV); 10^3 LD50 virus, 10 μg/mouse days -1 and 6, after 8 days): 3/5
- # Alive/Total Animals (West Nile virus (WNV); 10^4 LD50 virus, 10 μg/mouse days -1 and 6, after 8 days): 3/5
- # Alive/Total Animals (West Nile virus (WNV); no virus (0), 10 μg/mouse days -1 and 6): 6/6
- # Alive/Total (West Nile virus (WNV); 10^3 IPLD50, 1 μg/mouse days -1, 1, 2 and 4, day 8): 3/5
- # Alive/Total (West Nile virus (WNV); compound alone, 1 μg/mouse days -1, 1, 2 and 4, day 8): 5/5
- reduction of virus yield (WNV; 0.1 μg): ten
- Virus Yield (WNV; 0.1 μg/plate): 2 × 10^3 PFU/ml
- reduction of virus yield (WNV; 1 μg): 40 fold
- Virus Yield (WNV; μg/plate (text: 1 μg)): 5 × 10^2 PFU/ml
